Patent publication US20240342150A1 (priority 2021, published 2024)

Legend:
SARS-CoV-2 variants = assay: microbe, parasite or virus in culture; format: cell-based
SARS-CoV-2 variant D614G = format: cell-based

With `O=C(c1ccc(OCCN2CCCCC2)cc1)c1c(-c2ccc(O)cc2)sc2cc(O)ccc12` [Raloxifene, 1-[6-hydroxy-2-(4-hydroxyphenyl)benzo[b]thien-3-yl]-1-[4-[2-(1-piperidinyl)ethoxy]phenyl]methanone] the IC50 (SARS-CoV-2 variants; Severe acute respiratory syndrome coronavirus 2, Vero C1008, read-out: IC50 calculated on recovering of cell viability) was 4.5 to 7.99 µM, the “recovery of viability in infected Vero E6 cells” value (SARS-CoV-2 variants; all the tested viral variants) was “able to recover viability” and the IC50 (SARS-CoV-2 variant D614G) was 7.48 µM.
